test system: SR cells; assay: Half inhibitory concentration (IC50) on ALK-positive SR cell proliferation (CCK-8); assay type: cell-based; conditions: Homo sapiens; SR cells, 72 h drug treatment, CCK-8; read-out: IC50 (nM)/ SR cell line
Method: ALK-positive SR cells (human large cell immunoblastic lymphoma) were purchased from the American Type Culture Collection (ATCC); H3122 cells (human non-small cell lung cancer) were from the Shanghai University of Science and Technology Lin Haifan's research group.
The cells used in this present disclosure were cultured in a 37° C. incubator containing 5% CO2.
SR cells were seeded in 100 μL RPMI1640 complete medium at a density of 10,000 cells/well. 100 μL of the inoculated cells were treated with 0.5 μL diluted PROTAD compound of the present disclosure to be tested at 10 successively decreasing concentrations (starting at the highest concentration of 10 μM; 5-fold serial dilutions) After the cells were treated with the drug for 72 h, cell viability was determined according to the CCK-8 reagent operating instructions. The negative control was DMSO, and the positive control was a commercial inhibitor. After CCK-8 treatment for 2 h, the value of O.D.450 was measured using a microplate reader.

Structure (SMILES) | IC50
CCc1cc2c(cc1N1CCC(N3CCN(C(=O)COCCOCCSc4cccc5c4CN(C4CCC(=O)NC4=O)C5=O)CC3)CC1)C(C)(C)c1[nH]c3cc(C#N)ccc3c1C2=O (stereo not shown) [SIAIS249067, 8-(4-(4-(2-(2-(2-((2-(2,6-dioxopiperidin-3-yl)-1-oxoisoindolin-4-yl)thio)ethoxy)ethoxy)acetyl)piperazin-1-yl)piperidin-1-yl)-9-ethyl-6,6-dimethyl-11-oxo-6,11-dihydro-5H-benzo[b]carbazole-3-carbonitrile] | 0.38 ± 0.18 nM
CCc1cc2c(cc1N1CCC(N3CCN(C(=O)COCCOCCOCCSc4cccc5c4CN(C4CCC(=O)NC4=O)C5=O)CC3)CC1)C(C)(C)c1[nH]c3cc(C#N)ccc3c1C2=O (stereo not shown) [SIAIS249068, 8-(4-(4-(2-(2-(2-(2-((2-(2,6-dioxopiperidin-3-yl)-1-oxoisoindolin-4-yl)thio)ethoxy)ethoxy)ethoxy)acetyl)piperazin-1-yl)piperidin-1-yl)-9-ethyl-6,6-dimethyl-11-oxo-6,11-dihydro-5H-benzo[b]carbazole-3-carbonitrile] | 0.33 ± 0.06 nM
CCc1cc2c(cc1N1CCC(N3CCN(C(=O)COCCOCCOCCOCCSc4cccc5c4CN(C4CCC(=O)NC4=O)C5=O)CC3)CC1)C(C)(C)c1[nH]c3cc(C#N)ccc3c1C2=O (stereo not shown) [SIAIS249069, 8-(4-(4-(14-((2-(2,6-dioxopiperidin-3-yl)-1-oxoisoindolin-4-yl)thio)-3,6,9,12-tetraoxatetradecanoyl)piperazin-1-yl)piperidin-1-yl)-9-ethyl-6,6-dimethyl-11-oxo-6,11-dihydro-5H-benzo[b]carbazole-3-carbonitrile] | 0.81 ± 0.28 nM
CCc1cc2c(cc1N1CCC(N3CCN(C(=O)COCCOCCOCCOCCOCCSc4cccc5c4CN(C4CCC(=O)NC4=O)C5=O)CC3)CC1)C(C)(C)c1[nH]c3cc(C#N)ccc3c1C2=O (stereo not shown) [SIAIS249070, 8-(4-(4-(17-((2-(2,6-dioxopiperidin-3-yl)-1-oxoisoindolin-4-yl)thio)-3,6,9,12,15-pentaoxaheptadecanoyl)piperazin-1-yl)piperidin-1-yl)-9-ethyl-6,6-dimethyl-11-oxo-6,11-dihydro-5H-benzo[b]carbazole-3-carbonitrile] | 0.43 ± 0.11 nM
CCc1cc2c(cc1N1CCC(N3CCN(C(=O)CSc4cccc5c4CN(C4CCC(=O)NC4=O)C5=O)CC3)CC1)C(C)(C)c1[nH]c3cc(C#N)ccc3c1C2=O (stereo not shown) [SIAIS262096, 8-(4-(4-(2-((2-(2,6-dioxopiperidin-3-yl)-1-oxoisoindolin-4-yl)thio)acetyl)piperazin-1-yl)piperidin-1-yl)-9-ethyl-6,6-dimethyl-11-oxo-6,11-dihydro-5H-benzo[b]carbazole-3-carbonitrile] | 0.22 ± 0.11 nM
CCc1cc2c(cc1N1CCC(N3CCN(C(=O)CCSc4cccc5c4CN(C4CCC(=O)NC4=O)C5=O)CC3)CC1)C(C)(C)c1[nH]c3cc(C#N)ccc3c1C2=O (stereo not shown) [SIAIS262097, 8-(4-(4-(3-((2-(2,6-dioxopiperidin-3-yl)-1-oxoisoindolin-4-yl)thio)propanoyl)piperazin-1-yl)piperidin-1-yl)-9-ethyl-6,6-dimethyl-11-oxo-6,11-dihydro-5H-benzo[b]carbazole-3-carbonitrile] | 3.89 ± 0.78 nM
CCc1cc2c(cc1N1CCC(N3CCN(C(=O)CCCSc4cccc5c4CN(C4CCC(=O)NC4=O)C5=O)CC3)CC1)C(C)(C)c1[nH]c3cc(C#N)ccc3c1C2=O (stereo not shown) [SIAIS262098, 8-(4-(4-(4-((2-(2,6-dioxopiperidin-3-yl)-1-oxoisoindolin-4-yl)thio)butanoyl)piperazin-1-yl)piperidin-1-yl)-9-ethyl-6,6-dimethyl-11-oxo-6,11-dihydro-5H-benzo[b]carbazole-3-carbonitrile] | 0.29 ± 0.21 nM
CCc1cc2c(cc1N1CCC(N3CCN(C(=O)CCCCSc4cccc5c4CN(C4CCC(=O)NC4=O)C5=O)CC3)CC1)C(C)(C)c1[nH]c3cc(C#N)ccc3c1C2=O (stereo not shown) [SIAIS262099, 8-(4-(4-(5-((2-(2,6-dioxopiperidin-3-yl)-1-oxoisoindolin-4-yl)thio)pentanoyl)piperazin-1-yl)piperidin-1-yl)-9-ethyl-6,6-dimethyl-11-oxo-6,11-dihydro-5H-benzo[b]carbazole-3-carbonitrile] | 0.93 ± 1.11 nM
CCc1cc2c(cc1N1CCC(N3CCN(C(=O)CCCCCSc4cccc5c4CN(C4CCC(=O)NC4=O)C5=O)CC3)CC1)C(C)(C)c1[nH]c3cc(C#N)ccc3c1C2=O (stereo not shown) [SIAIS262100, 8-(4-(4-(6-((2-(2,6-dioxopiperidin-3-yl)-1-oxoisoindolin-4-yl)thio)hexanoyl)piperazin-1-yl)piperidin-1-yl)-9-ethyl-6,6-dimethyl-11-oxo-6,11-dihydro-5H-benzo[b]carbazole-3-carbonitrile] | 0.52 ± 0.48 nM
CCc1cc2c(cc1N1CCC(N3CCN(C(=O)CCCCCCSc4cccc5c4CN(C4CCC(=O)NC4=O)C5=O)CC3)CC1)C(C)(C)c1[nH]c3cc(C#N)ccc3c1C2=O (stereo not shown) [SIAIS262101, 8-(4-(4-(7-((2-(2,6-dioxopiperidin-3-yl)-1-oxoisoindolin-4-yl)thio)heptanoyl)piperazin-1-yl)piperidin-1-yl)-9-ethyl-6,6-dimethyl-11-oxo-6,11-dihydro-5H-benzo[b]carbazole-3-carbonitrile] | 2.94 ± 3.7 nM
CCc1cc2c(cc1N1CCC(N3CCN(CCSc4cccc5c4C(=O)N(C4CCC(=O)NC4=O)C5=O)CC3)CC1)C(C)(C)c1[nH]c3cc(C#N)ccc3c1C2=O (stereo not shown) [SIAIS262158, 8-(4-(4-(2-((2-(2,6-dioxopiperidin-3-yl)-1,3-dioxoisoindolin-4-yl)thio)ethyl)piperazin-1-yl)piperidin-1-yl)-9-ethyl-6,6-dimethyl-11-oxo-6,11-dihydro-5H-benzo[b]carbazole-3-carbonitrile] | 2.9 nM
CCc1cc2c(cc1N1CCC(N3CCN(CCCCCCSc4cccc5c4CN(C4CCC(=O)NC4=O)C5=O)CC3)CC1)C(C)(C)c1[nH]c3cc(C#N)ccc3c1C2=O (stereo not shown) [SIAIS262159, 8-(4-(4-(6-((2-(2,6-dioxopiperidin-3-yl)-1-oxoisoindolin-4-yl)thio)hexyl)piperazin-1-yl)piperidin-1-yl)-9-ethyl-6,6-dimethyl-11-oxo-6,11-dihydro-5H-benzo[b]carbazole-3-carbonitrile] | 1 nM
CCc1cc2c(cc1N1CCC(NC(=O)CSc3cccc4c3CN(C3CCC(=O)NC3=O)C4=O)CC1)C(C)(C)c1[nH]c3cc(C#N)ccc3c1C2=O (stereo not shown) [SIAIS262161, N-(1-(3-cyano-9-ethyl-6,6-dimethyl-11-oxo-6,11-dihydro-5H-benzo[b]carbazol-8-yl)piperidin-4-yl)-2-((2-(2,6-dioxopiperidin-3-yl)-1-oxoisoindolin-4-yl)thio)acetamide] | 1.86 nM
CCc1cc2c(cc1N1CCC(NC(=O)CCCCCSc3cccc4c3CN(C3CCC(=O)NC3=O)C4=O)CC1)C(C)(C)c1[nH]c3cc(C#N)ccc3c1C2=O (stereo not shown) [SIAIS262162, N-(1-(3-cyano-9-ethyl-6,6-dimethyl-11-oxo-6,11-dihydro-5H-benzo[b]carbazol-8-yl)piperidin-4-yl)-6-((2-(2,6-dioxopiperidin-3-yl)-1-oxoisoindolin-4-yl)thio)hexanamide] | 11.3 nM
CCc1cc2c(cc1N1CCC(NC(=O)COCCSc3cccc4c3CN(C3CCC(=O)NC3=O)C4=O)CC1)C(C)(C)c1[nH]c3cc(C#N)ccc3c1C2=O (stereo not shown) [SIAIS262163, N-(1-(3-cyano-9-ethyl-6,6-dimethyl-11-oxo-6,11-dihydro-5H-benzo[b]carbazol-8-yl)piperidin-4-yl)-2-(2-((2-(2,6-dioxopiperidin-3-yl)-1-oxoisoindolin-4-yl)thio)ethoxy)acetamide] | 1.6 nM

test system: CDK4/6 protein; assay: Western-blot determination of CDK4/6 protein degradation (DC50) in T-47D cells; assay type: cell-based, human; conditions: 24 h drug treatment, read-out: DC50(nM)/T-47D cell line

DC50 | Structure (SMILES)
100 to 500 nM | CC(=O)c1c(C)c2cnc(Nc3ccc(N4CCN(C(=O)CS(=O)(=O)c5cccc6c5C(=O)N(C5CCC(=O)NC5=O)C6=O)CC4)cn3)nc2n(C2CCCC2)c1=O (stereo not shown) [SIAIS151056, 4-((2-(4-(6-((6-acetyl-8-cyclopentyl-5-methyl-7-oxo-7,8-dihydropyrido[2,3-d]pyrimidin-2-yl)amino)pyridin-3-yl)piperazin-1-yl)-2-oxoethyl)sulfonyl)-2-(2,6-dioxopiperidin-3-yl)isoindoline-1,3-dione]
100 to 500 nM | CC(=O)c1c(C)c2cnc(Nc3ccc(N4CCN(C(=O)C[S+]([O-])c5cccc6c5C(=O)N(C5CCC(=O)NC5=O)C6=O)CC4)cn3)nc2n(C2CCCC2)c1=O (stereo not shown) [SIAIS151057, 4-((2-(4-(6-((6-acetyl-8-cyclopentyl-5-methyl-7-oxo-7,8-dihydropyrido[2,3-d]pyrimidin-2-yl)amino)pyridin-3-yl)piperazin-1-yl)-2-oxoethyl)sulfinyl)-2-(2,6-dioxopiperidin-3-yl)isoindoline-1,3-dione]
> 500 nM | CC(=O)c1c(C)c2cnc(Nc3ccc(N4CCN(C(=O)CCSc5cccc6c5C(=O)N(C5CCC(=O)NC5=O)C6=O)CC4)cn3)nc2n(C2CCCC2)c1=O (stereo not shown) [SIAIS184086, 4-((3-(4-(6-((6-acetyl-8-cyclopentyl-5-methyl-7-oxo-7,8-dihydropyrido[2,3-d]pyrimidin-2-yl)amino)pyridin-3-yl)piperazin-1-yl)-3-oxopropyl)thio)-2-(2,6-dioxopiperidin-3-yl)isoindoline-1,3-dione]
1 to 10 nM | CC(=O)c1c(C)c2cnc(Nc3ccc(N4CCN(C(=O)CCCSc5cccc6c5C(=O)N(C5CCC(=O)NC5=O)C6=O)CC4)cn3)nc2n(C2CCCC2)c1=O (stereo not shown) [SIAIS184087, 4-((4-(4-(6-((6-acetyl-8-cyclopentyl-5-methyl-7-oxo-7,8-dihydropyrido [2,3-d]pyrimidin-2-yl)amino)pyridin-3-yl)piperazin-1-yl)-4-oxobutyl)thio)-2-(2,6-dioxo Piperidin-3-yl)isoindoline-1,3-dione]
